Test results: patent US20020128311A1, “Halocyanoacetamide antimicrobial compositions” (priority 2000, published 2002)

Experiments:
[1] = Stability of CMIT and DBNPA mixtures in GTA, stored at 50° C., HPLC; assay type: physicochemical; conditions: […]% DBNPA, […]% CMIT/MIT mixture
Protocol: Surfactants were TweenTM 20, TritonTM DF-12 or TritonTM CF-10. The compositions were stored at 50° C. for 4 weeks and the concentrations of active ingredients ([…]) in the compositions were determined by HPLC at the indicated time intervals.

[2] = Stability of DCOIT and DBNPA mixtures in GTA, stored at 40° C., HPLC; assay type: physicochemical; conditions: 4% DCOIT, […]% DBNPA
Protocol: […] […] Surfactants were TweenTM 20, TritonTM DF-12 or TritonTM CF-10. These compositions were stored at 40° C. for 6 weeks and the concentrations of active ingredients ([…]) in the compositions were determined by HPLC at the indicated time intervals.

[3] = Freeze/thaw stability of DCOIT/DBNPA/surfactant/GTA compositions, HPLC; assay type: physicochemical; conditions: for % DCOIT retained after Freezing and Thawing: thawed at 25° C. 5 hours, three times
Protocol: Samples were prepared to test the freeze/thaw stability of compositions of the present invention. The freeze/thaw test was conducted for compositions of […], surfactant and GTA prepared in Example 4. Samples (20 g each) were stored at -10° C. or -25° C. for 19 hours to be frozen; samples were then stored at 25° C. for 5 hours to be thawed. This sequence was repeated three times. Then the concentrations of active ingredients ([…]) in the compositions were determined by HPLC.

[4] = Solubility in glyceryl triacetate; conditions: based on total amount of compound and solvent

Structure (SMILES): Cn1sc(Cl)cc1=O [CMIT, 5-chloro-2-methyl-3-isothiazolone]
- % CMIT retained ([1]; 5% Triton CF-10, 45% GTA, 0 Time): 100%
- % CMIT retained ([1]; 5% Triton CF-10, 45% GTA, 1 Week): 98%
- % CMIT retained ([1]; 5% Triton CF-10, 45% GTA, 2 Weeks): 96%
- % CMIT retained ([1]; 5% Triton CF-10, 45% GTA, 3 Weeks): 86%
- % CMIT retained ([1]; 5% Triton CF-10, 45% GTA, 4 Weeks): 84%
- % CMIT retained ([1]; 5% Triton DF-12, 45% GTA, 0 Time): 100%
- % CMIT retained ([1]; 5% Triton DF-12, 45% GTA, 1 Week): 100%
- % CMIT retained ([1]; 5% Triton DF-12, 45% GTA, 2 Weeks): 99%
- % CMIT retained ([1]; 5% Triton DF-12, 45% GTA, 3 Weeks): 87%
- % CMIT retained ([1]; 5% Triton DF-12, 45% GTA, 4 Weeks): 85%
- % CMIT retained ([1]; 5% Tween 20, 45% GTA, 0 Time): 100%
- % CMIT retained ([1]; 5% Tween 20, 45% GTA, 1 Week): 100%
- % CMIT retained ([1]; 5% Tween 20, 45% GTA, 2 Weeks): 80%
- % CMIT retained ([1]; 5% Tween 20, 45% GTA, 3 Weeks): 75%
- % CMIT retained ([1]; 5% Tween 20, 45% GTA, 4 Weeks): 74%
- % CMIT retained ([1]; no surfactant, 50% GTA, 0 Time): 100%
- % CMIT retained ([1]; no surfactant, 50% GTA, 1 Week): 102%
- % CMIT retained ([1]; no surfactant, 50% GTA, 2 Weeks): 97%
- % CMIT retained ([1]; no surfactant, 50% GTA, 3 Weeks): 90%
- % CMIT retained ([1]; no surfactant, 50% GTA, 4 Weeks): 88%

Structure (SMILES): CCCCCCCCn1sc(Cl)c(Cl)c1=O [DCOIT]
- % DCOIT retained ([2]; 5% Triton CF-10, 66% GTA, 4 Weeks): 96.0%
- % DCOIT retained ([2]; 5% Triton CF-10, 66% GTA, 6 Weeks): 95.6%
- % DCOIT retained ([2]; 5% Triton CF-10, 66% GTA, Time 0): 100.0%
- % DCOIT retained ([2]; 5% Triton DF-12, 66% GTA, 4 Weeks): 100.0%
- % DCOIT retained ([2]; 5% Triton DF-12, 66% GTA, 6 Weeks): 98.2%
- % DCOIT retained ([2]; 5% Triton DF-12, 66% GTA, Time 0): 100.0%
- % DCOIT retained ([2]; 5% Tween 20, 66% GTA, 4 Weeks): 94.3%
- % DCOIT retained ([2]; 5% Tween 20, 66% GTA, 6 Weeks): 94.0%
- % DCOIT retained ([2]; 5% Tween 20, 66% GTA, Time 0): 100.0%
- % DCOIT retained after Freezing and Thawing ([3]; Example 4 composition with Triton CF-10, frozen at −10° C. 19 hours): 100.0%
- % DCOIT retained after Freezing and Thawing ([3]; Example 4 composition with Triton CF-10, frozen at −25° C. 19 hours): 100.0%
- % DCOIT retained after Freezing and Thawing ([3]; Example 4 composition with Triton DF-12, frozen at −10° C. 19 hours): 100.0%
- % DCOIT retained after Freezing and Thawing ([3]; Example 4 composition with Triton DF-12, frozen at −25° C. 19 hours): 100.0%
- % DCOIT retained after Freezing and Thawing ([3]; Example 4 composition with Tween 20, frozen at −10° C. 19 hours): 100.0%
- % DCOIT retained after Freezing and Thawing ([3]; Example 4 composition with Tween 20, frozen at −25° C. 19 hours): 100.0%
- physical stability (appearance) during freeze/thaw cycling ([3]; in GTA solutions in the presence of surfactants): clear solution, no precipitation or phase separation observed
- solubility in glyceryl triacetate ([4]; at 5° C.): 8 % by weight
- solubility in glyceryl triacetate ([4]; at 25° C.): 8 % by weight
- solubility in glyceryl triacetate ([4]; at 40° C.): 20 % by weight
